Data from patent publication US8884030B2, “Inhibitors of Flaviviridae viruses” (priority 2010, dated 2014).

What follows are compounds tested on human hepatoma Huh-7 cell line harboring a HCV replicon (assay: HCV replicon assay (inhibition of viral replication, luciferase)). Conditions: Hepatitis C virus, 72 h; 2 μM; Huh-7 HCV replicon cells, 3 days incubation; inhibition of viral replication; read-out: % inhibition at 2 μM.
Format: cell-based
Procedure: The anti-HCV activity of the compounds of this invention was tested in a human hepatoma Huh-7 cell line harboring a HCV replicon. The assay comprised the following steps:
Step 1: Compound Preparation and Serial Dilution.
Serial dilution was performed in 100% DMSO in a 384-well plate. A solution containing a compound at 225-fold concentration of the starting final serial dilution concentration was prepared in 100% DMSO and 15 uL added to the pre-specified wells in column 3 or 13 of a polypropylene 384-well plate. The rest of the 384-well plate was filled with 10 uL 100% DMSO except for columns 23 and 24, where 10 uL of 500 uM a HCV protease inhibitor (ITMN-191) in 100% DMSO was added. The HCV protease inhibitor was used a control of 100% inhibition of HCV replication. The plate was then placed on a Biomek FX Workstation to start the serial dilution. The serial dilution was performed for ten cycles of 3-fold dilution from column 3 to 12 or from column 13 to 22.
Step 2: Cell Culture Plate Preparation and Compound Addition
To each well of a black polypropylene 384-well plate, 90 μL of cell media containing 1600 suspended Huh-7 HCV replicon cells was added with a Biotek uFlow Workstation. A volume of 0.4 μL of the compound solution was transferred from the serial dilution plate to the cell culture plate on a Biomek FX Workstation. The DMSO concentration in the final assay condition was 0.44%. The plates were incubated for 3 days at 37° C. with 5% CO2 and 85% humidity.
Step 3: Detection of Cytotoxicity and Inhibition of Viral Replication
a) Assessment of cytotoxicity: The media in the 384-well cell culture plate was aspirated with a Biotek EL405 plate-washer. A volume of 50 μL of a solution containing 400 nM Calcein AM in 100% PBS was added to each well of the plate with a Biotek uFlow Workstation. The plate was incubated for 30 minutes at room temperature before the fluorescence signal ([…]) was measured with a Perkin Elmer Envision Plate Reader.
b) Assessment of inhibition of viral replication: The calcein-PBS solution in the 384-well cell culture plate was aspirated with a Biotek EL405 plate-washer. A volume of 20 μL of Dual-Glo luciferase buffer (Promega, Dual-Glo Luciferase Assay Reagent, cat. #E298B) was added to each well of the plate with a Biotek uFlow Workstation. The plate was incubated for 10 minutes at room temperature. A volume of 20 μL of a solution containing 1:100 mixture of Dual-Glo Stop & Glo substrate(Promega, Dual-Glo Luciferase Assay Reagent, cat. #E313B) and Dual-Glo Stop & Glo buffer (Promega, Dual-Glo Luciferase Assay Reagent, cat. #E314B) was then added to each well of the plate with a Biotek uFlow Workstation. The plate was incubated at room temperature for 10 minutes before the luminescence signal was measured with a Perkin Elmer Envision Plate Reader.
The percent cytotoxicity was determined by calcein AM conversion to fluorescent product. The average fluorescent signal from the DMSO control wells were defined as 100% nontoxic. The individual fluorescent signal from testing compound treated well was divided by the average signal from DMSO control wells and then multiplied by 100% to get the percent viability. The percent anti-HCV replication activity was determined by the luminescence signal from the testing well compared to DMSO controls wells. The background signal was determined by the average luminescence signal from the HCV protease inhibitor treated wells and was subtracted from the signal from the testing wells as well as the DMSO control wells. Following 3-fold serial dilutions, the EC50 and CC50 values were calculated by fitting % inhibition at each concentration to the following equation: % inhibition=100%[(EC50/[l])^b+1]
Where b is Hill's coefficient. See, for reference, Hill, A. V., The Possible Effects of the Aggregation of the Molecules of Hæmoglobin on its Dissociation Curves, J. Physiol. 40: iv-vii. (1910). […]
Work on `CC1CCC(C(=O)N(c2cc(C#CC(C)(C)C)sc2C(=O)O)C2CCC(NN(C)C(=O)OC3CCOCC3)CC2)CC1` (stereo not shown) [Compound 217, 5-(3,3-dimethyl-but-1-ynyl)-3-((4-methyl-cyclohexanecarbonyl)-{4-[N′-methyl-N′-(tetrahydro-pyran-4-yloxycarbonyl)-hydrazino]-cyclohexyl}-amino)-thiophene-2-carboxylic acid] yielded an inhibition at 2 µM of 100%. With `CC(C)(C)C#Cc1cc(N(C(=O)[C@H]2CC[C@H](C)CC2)[C@H]2CCN(C(=O)OC3(C)CN(C(=O)OC(C)(C)C)C3)C2)c(C(=O)O)s1` [Compound 69, 3-[[2-carboxy-5-(3,3-dimethyl-but-1-ynyl)-thiophen-3-yl]-(trans-4-methyl-cyclohexanecarbonyl)-3-(S)-amino]-pyrrolidine-1-carboxylic acid 1-tert-butoxycarbonyl-3-methyl-azetidin-3-yl ester] the inhibition at 2 µM was 99.5%. For `CC1CCC(C(=O)N(c2cc(C#CC(C)(C)C)sc2C(=O)O)N(C)C2CCN(C(=O)OC(C)(C)C)CC2)CC1` (stereo not shown) [Compound 127, 4-[N′-[2-carboxy-5-(3,3-dimethyl-but-1-ynyl)-thiophen-3-yl]-N-methyl-N′-(4-methyl-cyclohexanecarbonyl)-hydrazino]-piperidine-1-carboxylic acid tert-butyl ester], the inhibition at 2 µM was 98.3%. `CC1CCC(C(=O)N(c2cc(C#CC(C)(C)C)sc2C(=O)O)N(CCO)C2COC2)CC1` (stereo not shown) [Compound 134, 5-(3,3-dimethyl-but-1-ynyl)-3-[N′-(2-hydroxy-ethyl)-N-(4-methyl-cyclohexanecarbonyl)-N′-oxetan-3-yl-hydrazino]-thiophene-2-carboxylic acid] was tested, and the inhibition at 2 µM was 99%. Compound `C[C@@H](CCNC(=O)O[C@H]1CO[C@H]2OCC[C@H]21)N(c1cc(C#CC(C)(C)C)sc1C(=O)O)C(=O)[C@H]1CC[C@H](C)CC1` [Compound 64, 5-(3,3-Dimethyl-but-1-ynyl)-3-[[3-(hexahydro-furo[2,3-b]furan-3-yloxycarbonylamino)-1-(S)-methyl-propyl]-(trans-4-methyl-cyclohexanecarbonyl)-amino]-thiophene-2-carboxylic acid] has an inhibition at 2 µM of 100%. `CC(C)(C)C#Cc1cc(N(C(=O)[C@H]2CC[C@H](C)CC2)C2CCC(NC(=O)OC3CCNCC3)CC2)c(C(=O)O)s1` (stereo partly drawn) [Compound 45, 5-(3,3-dimethyl-but-1-ynyl)-3-{(4-trans-methyl-cyclohexanecarbonyl)-[4-(piperidin-4-yloxycarbonylamino)-cyclohexyl]-amino}-thiophene-2-carboxylic acid] gave an inhibition at 2 µM of 100%. `CC1CCC(C(=O)N(NCCOc2cccnc2)c2cc(C#CC(C)(C)C)sc2C(=O)O)CC1` (stereo not shown) [Compound 133, 5-(3,3-dimethyl-but-1-ynyl)-3-{N-(4-methyl-cyclohexanecarbonyl)-N′-[2-(pyridin-3-yloxy)-ethyl]-hydrazino}-thiophene-2-carboxylic acid] was tested, and the inhibition at 2 µM was 96.7%. Work on `CC(C)(C)C#Cc1cc(N(C(=O)[C@H]2CC[C@H](C)CC2)C2CCC(NC(=O)OC3(C)CCNC3)CC2)c(C(=O)O)s1` (stereo partly drawn) [Compound 76, 5-(3,3-Dimethyl-but-1-ynyl)-3-{(trans-4-cyclohexanecarbonyl)-[4-(3-methyl-pyrrolidin-3-yloxycarbonylamino)-cyclohexyl]-amino}-thiophene-2-carboxylic acid] yielded an inhibition at 2 µM of 99.4%. With `CC1CCC(C(=O)N(c2cc(C#CC(C)(C)C)sc2C(=O)O)C2CCN(C(=O)c3cnccn3)CC2)CC1` (stereo not shown) [Compound 141, 5-(3,3-dimethyl-but-1-ynyl)-3-{(4-methyl-cyclohexanecarbonyl)-[1′-(pyrazine-2-carbonyl)-piperidin-4-yl]-amino}-thiophene-2-carboxylic acid] the inhibition at 2 µM was 99.9%. Work on `CC1CCC(C(=O)N(c2cc(C#CC(C)(C)C)sc2C(=O)O)N(C)[C@H]2CC[C@@H](O)CC2)CC1` (stereo partly shown) [Compound 123, 3-(2-(4-hydroxycyclohexyl)-2-methyl-1-(4-methylcyclohexanecarbonyl)hydrazinyl)-5-(3,3-dimethylbut-1-ynyl)thiophene-2-carboxylic acid] yielded an inhibition at 2 µM of 99.9%. `CC(C)(C)C#Cc1cc(N(C(=O)[C@H]2CC[C@H](C)CC2)C2CCC(=NOCc3ccccc3)CC2)c(C(=O)O)s1` (stereo partly shown) [Compound 113] showed an inhibition at 2 µM of 98.1%. In the case of `CC1CCC(C(=O)N(c2cc(C#CC(C)(C)C)sc2C(=O)O)C2CCC(NN(C)c3ccccn3)CC2)CC1` (stereo not shown) [Compound 79, 5-(3,3-Dimethyl-but-1-ynyl)-3-{(4-methyl-cyclohexanecarbonyl)-[4-(N′-methyl-N′-pyridin-2-yl-hydrazino)-cyclohexyl]-amino}-thiophene-2-carboxylic acid], the inhibition at 2 µM is reported as 100%. `CC1CCC(C(=O)N(c2cc(C#CC(C)(C)C)sc2C(=O)O)C2CCC(NN(C)c3ccc(O)nn3)CC2)CC1` (stereo not shown) [Compound 82, 5-(3,3-Dimethyl-but-1-ynyl)-3-[{4-[N′-(6-hydroxy-pyridazin-3-yl)-N′-methyl-hydrazino]-cyclohexyl}-(4-methyl-cyclohexanecarbonyl)-amino]-thiophene-2-carboxylic acid] was tested, and the inhibition at 2 µM was 100%. `CC(C)(C)C#Cc1cc(N(C(=O)[C@H]2CC[C@H](C)CC2)C2CCC(=NOCC#N)CC2)c(C(=O)O)s1` (stereo partly shown) [Compound 116, 3-(N-(4-(Cyanomethoxyimino)cyclohexyl)-4-methylcyclohexanecarboxamido)-5-(3,3-dimethylbut-1-ynyl)thiophene-2-carboxylic acid] was tested, and the inhibition at 2 µM was 99.9%. `CC(C)(C)C#Cc1cc(N(C(=O)[C@H]2CC[C@H](C)CC2)C2CCN(C(=O)O[C@H]3CNC(=O)C3)CC2)c(C(=O)O)s1` [Compound 55, 4-[[2-carboxy-5-(3,3-dimethyl-but-1-ynyl)-thiophen-3-yl]-(4-trans-methyl-cyclohexanecarbonyl)-amino]-piperidine-1-carboxylic acid 5-oxo-pyrrolidin-3-(R)-yl ester] gave an inhibition at 2 µM of 87.9%. `CC(C)(C)C#Cc1cc(N(C(=O)[C@H]2CC[C@H](C)CC2)[C@H]2CCN(C(=O)OC3(C)CCN(C(=O)OC(C)(C)C)C3)C2)c(C(=O)O)s1` (stereo in doubt) [Compound 67, 3-(S)-{3-[[2-Carboxy-5-(3,3-dimethyl-but-1-ynyl)-thiophene-3-yl](trans-4-methyl-cyclohexanecarbonyl)-amino]-pyrrolidine-1-carbonyloxy}-3-methyl-pyrrolidine-1-carboxylic acid tert-butyl ester] was tested, and the inhibition at 2 µM was 99%. For `CC(C)(C)C#Cc1cc(N(C(=O)[C@H]2CC[C@H](C)CC2)C2CCC(NC(=O)O[C@H]3CNC(=O)C3)CC2)c(C(=O)O)s1` (stereo partly drawn) [Compound 49, 5-(3,3-dimethyl-but-1-ynyl)-3-{(4-trans-methyl-cyclohexanecarbonyl)-[4-(5-oxo-pyrrolidin-3-(S)-yloxycarbonylamino)-cyclohexyl]-amino}-thiophene-2-carboxylic acid], the inhibition at 2 µM was 99.2%. `CC1CCC(C(=O)N(c2cc(C#CC(C)(C)C)sc2C(=O)O)N(C)c2ccccn2)CC1` (stereo not shown) [Compound 137, 5-(3,3-dimethyl-but-1-ynyl)-3-[N′-methyl-N-(4-methyl-cyclohexanecarbonyl)-N′-pyridin-2-yl-hydrazino]-thiophene-2-carboxylic acid] was tested, and the inhibition at 2 µM was 100%.

Same assay, conditions: Hepatitis C virus, Huh-7, 72 h, read-out: % inhibition at 2 μM
`CC1CCC(C(=O)N(c2cc(C#CC(C)(C)C)sc2C(=O)O)C2CCC(NN(C)C(=O)Oc3ccccn3)CC2)CC1` (stereo not shown) [Compound 218, 5-(3,3-dimethyl-but-1-ynyl)-3-((4-methyl-cyclohexanecarbonyl)-{4-[N′-methyl-N′-(pyridin-2-yloxycarbonyl)-hydrazino]-cyclohexyl}-amino)-thiophene-2-carboxylic acid] gave an inhibition at 2 µM of 100%.
